Source: patent publication US20100168084A1, “Therapeutic compounds and related methods of use” (priority 2008, published 2010)
Read-outs that look alike come from different tables or passages of the source.

Tests used:
HDAC = conditions: literature statements; cited from earlier work
sirtuin protein [1] = assay: FP assay (IC50 FP ASSAY / ED50 FP); format: biochemical; conditions: Table 4
sirtuin protein [2] = target: T1, sirtuin protein (Homo sapiens, UniProt Q96EB6); assay: MS assay (IC50 MS ASSAY / ED50 MS / FOLD ACTIVATION MS); format: biochemical; set-up: scale not given here
T1 sequence (Q96EB6 2-747 limits assumed): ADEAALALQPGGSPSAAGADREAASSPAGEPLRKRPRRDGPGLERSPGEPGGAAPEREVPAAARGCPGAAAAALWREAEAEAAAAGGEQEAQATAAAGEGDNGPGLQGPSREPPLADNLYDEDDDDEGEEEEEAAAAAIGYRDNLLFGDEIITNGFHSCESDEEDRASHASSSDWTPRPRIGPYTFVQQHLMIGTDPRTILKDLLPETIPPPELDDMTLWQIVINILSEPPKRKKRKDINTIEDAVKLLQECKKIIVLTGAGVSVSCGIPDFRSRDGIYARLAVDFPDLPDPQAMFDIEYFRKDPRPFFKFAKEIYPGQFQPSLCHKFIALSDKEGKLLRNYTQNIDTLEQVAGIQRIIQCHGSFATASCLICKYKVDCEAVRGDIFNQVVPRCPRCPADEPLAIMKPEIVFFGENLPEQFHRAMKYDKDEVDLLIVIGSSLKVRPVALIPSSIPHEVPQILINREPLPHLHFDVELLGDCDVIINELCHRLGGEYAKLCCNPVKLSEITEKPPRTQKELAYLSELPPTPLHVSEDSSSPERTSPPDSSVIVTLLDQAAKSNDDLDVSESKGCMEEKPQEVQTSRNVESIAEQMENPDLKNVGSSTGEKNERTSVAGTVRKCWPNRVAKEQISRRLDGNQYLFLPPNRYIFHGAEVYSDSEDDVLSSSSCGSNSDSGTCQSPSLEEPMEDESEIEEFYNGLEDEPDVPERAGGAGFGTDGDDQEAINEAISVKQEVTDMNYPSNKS

[3] = target: cytochrome oxidase (Complex IV) (Homo sapiens, UniProt P00395); conditions: cited from earlier work
[4] = topical; cited from earlier work
[5] = MS assay, class symbols, key not given
[6] = Table 4, class symbols A′, A, B, C, NA, legend not given

Row | Molecule | ED50 MS ASSAY (sirtuin protein [2]) | ED50 MS ASSAY (sirtuin protein [2]; [5]) | ED50 MS ASSAY (sirtuin protein [2]; TABLE 4) | ED50 MS ASSAY (sirtuin protein [2]; Table 4) | ED50 MS ASSAY (sirtuin protein [2]; [6]) | further results
1 | O=C(/C=C/c1cccc(C(=O)NO)c1)NO [CBHA, m-carboxy-cinnamic acid bishydroxamic acid] |  |  |  |  |  | inhibition of HDAC (HDAC): inhibit HDAC at micromolar concentration or lower
2 | O=C(Nc1ccccc1-c1cn2c(CN3CCNCC3)csc2n1)c1ccc(-c2ccccc2)cc1 [Compound 708] | A′ | A′ | A′ | A′ | A′ | 
3 | O=C(Nc1ccccc1-c1cn2c(CN3CCNCC3)csc2n1)c1cccc(-c2ccccc2)c1 [Compound 710] | A′ | A′ | A′ | A′ | A′ | 
4 | COc1cc(OC)cc(C(=O)Nc2ccccc2-c2nc3cc(CN(C)C)cnc3s2)c1 [Compound 722] | A′ | A′ | A′ | A′ | A′ | 
5 | O=C(Nc1ccccc1-c1cn2c(CN3CCNCC3)csc2n1)c1cccc(-c2cc[nH]n2)c1 [Compound 733] | A′ | A′ | A′ | A′ | A′ | 
6 | COc1ccc(-c2cc(C(=O)Nc3ccccc3-c3cn4c(CN5CCNCC5)csc4n3)[nH]n2)cc1 [Compound 735] | A′ | A′ | A′ | A′ | A′ | 
7 | COc1ccc(-c2ccc(C(=O)Nc3ccccc3-c3cn4c(CN5CCNCC5)csc4n3)o2)cc1 [Compound 736] | A′ | A′ | A′ | A′ | A′ | 
8 | O=C(Nc1ccccc1-c1cn2c(CN3CCNCC3)csc2n1)c1cccc(SC(F)F)c1 [Compound 737] | A′ | A′ | A′ | A′ | A′ | 
9 | COc1cc(C(=O)Nc2ccccc2-c2cn3c(C)csc3n2)cc(OC)c1OC [Compound 739] | A′ | A′ | A′ | A′ | A′ | 
10 | Cc1csc2nc(-c3ccccc3NC(=O)c3cccc(N(C)C)c3)cn12 [Compound 740] | A′ | A′ | A′ | A′ | A′ | 
11 | CN1CCN(Cc2csc3nc(-c4ccccc4NC(=O)c4cnc5ccccc5n4)cn23)C(=O)C1 [Compound 741] | A′ | A′ | A′ | A′ | A′ | 
12 | O=C(Nc1ccccc1-c1cn2c(Cn3ccnc3)csc2n1)c1cnc2ccccc2n1 [Compound 745] | A′ | A′ | A′ | A′ | A′ | 
13 | C/C=C1\NC(=O)[C@H]2CSSCC/C=C/[C@H](CC(=O)N[C@H](C(C)C)C(=O)N2)OC(=O)[C@H](C(C)C)NC1=O [Depsipeptide, depsipeptide] |  |  |  |  |  | inhibition of HDAC (HDAC): inhibit HDAC activity at micromolar concentrations
14 | [N]=O [Nitric oxide] |  |  |  |  |  | concentration that inhibits cytochrome oxidase (Complex IV) [3]: about 1 micromolar
15 | CC(C)(C)NC[C@H](O)COc1nsnc1N1CCOCC1 [timolol] |  |  |  |  |  | time for IOP to fall [4]: 30 min; time of peak effects on IOP [4]: 1 to 2 h
16 | depudecin |  |  |  |  |  | inhibition of HDAC (HDAC): inhibit HDAC at micromolar concentrations
17 | trichostatin A [TSA] |  |  |  |  |  | inhibition of HDAC (HDAC): potent inhibitor of mammalian HDAC

Now from value to molecule, other results behind:

Row | ED50 MS ASSAY (sirtuin protein [2]) | ED50 MS ASSAY (sirtuin protein [2]; [5]) | ED50 MS ASSAY (sirtuin protein [2]; TABLE 4) | ED50 MS ASSAY (sirtuin protein [2]; Table 4) | ED50 MS ASSAY (sirtuin protein [2]; [6]) | Molecule | further results
18 | A′ |  |  |  |  | O=C1CN(Cc2csc3nc(-c4ccccc4NC(=O)c4cnc5ccccc5n4)cn23)CCN1 [Compound 677] | ED50 FP ASSAY (sirtuin protein [1]): A′; ED50 MS ASSAY (sirtuin protein [2]; Table 4, class symbols): A′; ED50 MS ASSAY (sirtuin protein [2]; Table 4, class symbols A′, A, B, D, NA, legend not given): A′; ED50 MS ASSAY (sirtuin protein [2]; class symbols (A′, A, B, D, NA), no legend given): A′
19 | A′ | A′ | A′ | A′ | A′ | O=C(Nc1ccccc1-c1cn2c(CN3CCSC3)csc2n1)c1cnc2ccccc2n1 [Compound 715] | 
20 | A′ | A′ | A′ | A′ | A′ | NC1CCN(Cc2csc3nc(-c4ccccc4NC(=O)c4cnc5ccccc5n4)cn23)CC1 [Compound 716] | 
21 | A′ | A′ | A′ | A′ | A′ | O=C(Nc1ccccc1-c1nc2cc(CN3CCOCC3)cnc2s1)c1ccc2ccccc2n1 [Compound 724] | 
22 | A′ | A′ | A′ | A′ | A′ | Cc1ccc(C(=O)Nc2ccccc2-c2nc3ccc(CN4CCNCC4)nc3s2)cc1C [Compound 727] | 
23 | A′ | A′ | A′ | A′ | A′ | O=C(Nc1ccccc1-c1nc2ccc(CN3CCNCC3)nc2s1)c1ccc2ccccc2n1 [Compound 729] | 
24 | A′ | A′ | A′ | A′ | A′ | O=C(Nc1ccccc1-c1nc2cc(CN3CCNCC3)cnc2s1)c1cc(-c2ccccc2)no1 [Compound 732] | 
25 | A′ | A′ | A′ | A′ | A′ | O=C(Nc1ccccc1-c1cn2c(CN3CCSCC3)csc2n1)c1cnc2ccccc2n1 [Compound 742] | 
